The target in assay [1] is T1, gp96 V706A/L707A (Homo sapiens, UniProt P14625, L711A/V710A).
T1 construct: made in house; host or cells: Escherichia coli BL21 (DE3)
The assay is described as follows: Surface plasmon resonance, GPM1 binding to gp96 mutant V706A/L707A. On the procedure: (§1) Human gp96 was expressed as His tag fusion protein in Escherichia coli BL21 (DE3) and purified by nickel affinity chromatography. His-tagged human gp96 was immobilized onto CM5 sensor chips using standard amine coupling2. PBS was used as a running buffer. The carboxymethyl dextran surface within one side of the flow cell was activated with a 7-min injection of a 1:1 ratio of 0.4M EDC and 0.1M NHS. The protein was coupled to the surface with a 7-min injection of gp96 diluted in 10 mM sodium acetate, pH 3.7. Remaining activated groups were blocked with a 7-min injection of 1.0M ethanolamine, pH 8.5. GPM1 compound was dissolved directly in the PBS running buffer containing 1% DMSO and injected at a flow rate of 20 μl/min at 25° C. and the binding was determined by the change in resonance units (RU). The compound concentration varied from 10 nM to 25 μM and each concentration was tested at least three times. All of the bound complexes dissociated back to baseline within a reasonable time frame. Therefore, no regeneration was required. Sensorgram was processed by subtracting the binding response recorded from the control surface, followed by subtracting an average of the buffer blank injections from the reaction spot. To determine kinetic rate constants, all data sets were fit to a simple 1:1 binding with drifting baseline model using BIAevaluation program.
The present inventors compared the dose-dependent effect of GPM1 and NC1 on the interaction of gp96 and AIMP1 using ELISA. […] The present inventors monitored the binding kinetics of GPM1 to gp96 or AIMP1 by surface plasmon resonance (SPR) using BIAcore 3000. […] To further define the GPM1 binding region of gp96 (Han, J. M., Park, S. G., Liu, B., Park, B. J., Kim, J. Y., Jin, C. H., Song, Y. W., Li, Z. & Kim, S. Am. J. Pathol. 170, 2042-2054 (2007)), the present inventors introduced point mutations at L707, V706, V712, L713, F714, Y731 and M738 that are located within AIMP1 binding region of gp96 and monitored how the mutations at these sites would affect the binding of GPM1 to gp96 using SPR method.
(In general: In SPR one partner is held on a chip, and binding of the other changes the refractive index at the surface.)

For assay [2], the target named is gp96 (Homo sapiens, UniProt P14625). The assay is described as follows: Surface plasmon resonance, GPM1 binding to gp96 WT. Also on record: made in house; host or cells: Escherichia coli BL21 (DE3). As for the experimental part: as §1
Assay [3] deals with NZB/W F1 mouse. The assay is described as follows: Survival rate of a lupus animal model. The note with it: 30 mg/kg intraperitoneally once a day, 25-week aged male mice. In kind it is in vivo. On the procedure:
An NZB/W F1 mouse is a lupus animal model showing a voluntary lupus symptom. On the animal model, the effect of 2,4-pyrimidine derivatives was tested.
Each group included 10, 25-week aged male NZB/W F1 mice. Each group was intraperiotneally administered with a control (5% DMSO solution) or a testing agent (2,4-pyrimidine derivative in a dose of 30 mg/kg) once a day. Except for mice which died by worsening of lupus symptoms, the ratio of surviving mice was analyzed.

Results on one compound are retold here after patent US9573907B2, “2, 4-pyrimidine derivatives and use thereof” (SNU R&DB FOUNDATION, priority 2009, dated 2017).

Chain of gp96 (P14625 22-803): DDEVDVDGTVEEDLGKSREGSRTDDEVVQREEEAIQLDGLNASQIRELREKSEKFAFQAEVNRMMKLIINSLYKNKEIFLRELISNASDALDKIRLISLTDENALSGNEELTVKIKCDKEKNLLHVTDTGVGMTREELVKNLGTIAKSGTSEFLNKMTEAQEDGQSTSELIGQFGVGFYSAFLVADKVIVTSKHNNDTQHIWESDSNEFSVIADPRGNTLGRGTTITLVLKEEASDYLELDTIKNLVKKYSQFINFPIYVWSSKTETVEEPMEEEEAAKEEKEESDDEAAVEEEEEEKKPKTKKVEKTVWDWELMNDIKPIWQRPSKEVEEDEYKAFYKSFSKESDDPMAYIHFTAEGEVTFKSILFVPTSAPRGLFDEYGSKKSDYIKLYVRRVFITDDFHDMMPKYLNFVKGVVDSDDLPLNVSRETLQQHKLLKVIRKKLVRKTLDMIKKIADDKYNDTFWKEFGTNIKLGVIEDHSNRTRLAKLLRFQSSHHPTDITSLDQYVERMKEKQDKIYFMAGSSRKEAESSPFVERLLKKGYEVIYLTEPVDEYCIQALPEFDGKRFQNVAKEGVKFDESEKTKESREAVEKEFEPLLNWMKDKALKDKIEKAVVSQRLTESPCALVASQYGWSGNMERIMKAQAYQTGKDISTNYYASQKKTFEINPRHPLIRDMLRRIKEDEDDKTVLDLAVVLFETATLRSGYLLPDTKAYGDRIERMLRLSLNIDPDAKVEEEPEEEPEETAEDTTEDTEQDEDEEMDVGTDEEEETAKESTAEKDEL
T1 sequence (P14625 22-803 V710A/L711A): as the sequence (P14625 22-803) above, with V689A, L690A counted along it

The term Kd denotes the equilibrium constant for the complex coming apart. The low end stands for higher affinity, the high end for lower affinity. Regarding `COC(=O)[C@@H](Oc1nc(OC)cc(OC)n1)C(C)C` [GPM1, (S)-methyl 2-(4,6-dimethoxypyrimidin-2-yloxy)-3-methylbutanoate], the Kd in assay [1] came out at 88.6 nM; in assay [2], 87.9 nM. In addition, the “koff (dissociation rate constant)” value in assay [1] is 0.0102 s⁻¹; in assay [2], 0.0154 s⁻¹. For the same compound, the results for the kon in assay [1] (read-out: Ka) and in assay [2] (read-out: Ka) were 115000 M⁻¹ s⁻¹ and 175000 M⁻¹ s⁻¹, respectively. The “ratio of mice which died by lupus” value in assay [3] is on record as “significantly reduced”.
